Assay results published in PubChem BioAssay AID1963969 (Molecular Pharmacology Branch, DTP, NCI, 2024).

Tested on: 817829-284-R-J1-PDC multi-cell spheroid viability
Test: Anticancer human tumor 817829-284-R-J1-PDC patient-derived colon adenocarcinoma cell line growth inhibition [PI3K]
Settings: for viability, T/C: stronger effect = lower value
Outline: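 Tumor cells grown as multi-cell spheroids with HUVEC endothelial cells and MSC fibroblast-like stroma were treated with targeted agents combined with inavolisib, alpelisib, duvelisib or copanlisib. Doses fell in half-log steps from near clinical Cmax, else from 10 microM. Viability was measured.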

[1] = curve of first compound, second compound 0.0316 µM
[2] = curve of first compound, second compound 0.1 µM
[3] = curve of first compound, second compound 0.316 µM
[4] = curve of first compound, second compound 1 µM
[5] = second compound 0.0316 µM, first compound 0.0316 µM
[6] = second compound 0.0316 µM, first compound 0.1 µM
[7] = second compound 0.0316 µM, first compound 0.316 µM
[8] = second compound 0.0316 µM, first compound 1 µM
[9] = second compound 0.0316 µM, first compound 3.16 µM
[10] = second compound 0.0316 µM, first compound 10 µM
[11] = second compound 0.1 µM, first compound 0.0316 µM
[12] = second compound 0.1 µM, first compound 0.1 µM
[13] = second compound 0.1 µM, first compound 0.316 µM
[14] = second compound 0.1 µM, first compound 1 µM
[15] = second compound 0.1 µM, first compound 3.16 µM
[16] = second compound 0.1 µM, first compound 10 µM
[17] = second compound 0.316 µM, first compound 0.0316 µM
[18] = second compound 0.316 µM, first compound 0.1 µM
[19] = second compound 0.316 µM, first compound 0.316 µM
[20] = second compound 0.316 µM, first compound 1 µM
[21] = second compound 0.316 µM, first compound 3.16 µM
[22] = second compound 0.316 µM, first compound 10 µM
[23] = second compound 1 µM, first compound 0.0316 µM
[24] = second compound 1 µM, first compound 0.1 µM
[25] = second compound 1 µM, first compound 0.316 µM
[26] = second compound 1 µM, first compound 1 µM
[27] = second compound 1 µM, first compound 3.16 µM
[28] = second compound 1 µM, first compound 10 µM
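Note: spheroids exposed to agents for seven days before readout.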
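Throughout, for viability, T/C: percent of vehicle DMSO control viability which is 100%.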

CNC(=O)c1ccc(N2C(=S)N(c3ccc(C#N)c(C(F)(F)F)c3)C(=O)C2(C)C)cc1F + COc1c(OCCCN2CCOCC2)ccc2c3n(c(=NC(=O)c4cnc(N)nc4)nc12)CCN3
IC50 (curve of first compound, second compound 0.00316 µM): > 10000 nM
IC50 (curve of first compound, second compound 0.01 µM): > 10000 nM
IC50 [1]: 3040 nM
IC50 [2]: < 31.6 nM
IC50 [3]: < 31.6 nM
IC50 [4]: < 31.6 nM
viability, T/C (second compound 0.00316 µM, first compound 0.0316 µM): 72.7%
viability, T/C (second compound 0.00316 µM, first compound 0.1 µM): 107%
viability, T/C (second compound 0.00316 µM, first compound 0.316 µM): 118%
viability, T/C (second compound 0.00316 µM, first compound 1 µM): 110%
viability, T/C (second compound 0.00316 µM, first compound 3.16 µM): 70.9%
viability, T/C (second compound 0.00316 µM, first compound 10 µM): 55.9%
viability, T/C (second compound 0.01 µM, first compound 0.0316 µM): 102%
viability, T/C (second compound 0.01 µM, first compound 0.1 µM): 107%
viability, T/C (second compound 0.01 µM, first compound 0.316 µM): 117%
viability, T/C (second compound 0.01 µM, first compound 1 µM): 58.2%
viability, T/C (second compound 0.01 µM, first compound 3.16 µM): 81.3%
viability, T/C (second compound 0.01 µM, first compound 10 µM): 55%
viability, T/C [5]: 52.3%
viability, T/C [6]: 61.2%
viability, T/C [7]: 73.6%
viability, T/C [8]: 105%
viability, T/C [9]: 49.2%
viability, T/C [10]: 27.3%
viability, T/C [11]: 35.4%
viability, T/C [12]: 38.6%
viability, T/C [13]: 31.2%
viability, T/C [14]: 36.3%
viability, T/C [15]: 31.5%
viability, T/C [16]: 21.7%
viability, T/C [17]: 19.9%
viability, T/C [18]: 23%
viability, T/C [19]: 23.2%
viability, T/C [20]: 18.5%
viability, T/C [21]: 19.1%
viability, T/C [22]: 17.7%
viability, T/C [23]: 11.2%
viability, T/C [24]: 12.2%
viability, T/C [25]: 9.45%
viability, T/C [26]: 13.1%
viability, T/C [27]: 11.1%
viability, T/C [28]: 9.44%

COc1c(OCCCN2CCOCC2)ccc2c3n(c(=NC(=O)c4cnc(N)nc4)nc12)CCN3
viability, T/C (compound 0.01 µM): 83.5% [middle of 6 runs]
viability, T/C (compound 0.0316 µM): 60.5% [middle of 6 runs]
viability, T/C (compound 0.1 µM): 39.5% [middle of 6 runs]
viability, T/C (compound 0.316 µM): 21.5% [middle of 6 runs]
viability, T/C (compound 1 µM): 10.1% [middle of 6 runs]
IC50 (compound alone, run of 04/25/2023): 58.3 nM [middle of 6 runs]

CC1(C)CCC(Nc2ncc(C(F)(F)F)c(-c3c[nH]c4c(P(C)(C)=O)c(C#N)ccc34)n2)CN1 (stereo not given) + Cc1nc(NC(=O)N2CCCC2C(N)=O)sc1-c1ccnc(C(C)(C)C(F)(F)F)c1
IC50 [1]: < 31.6 nM
IC50 [2]: < 31.6 nM
IC50 [3]: < 31.6 nM
IC50 [4]: < 31.6 nM
IC50 (curve of first compound, second compound 3.16 µM): < 31.6 nM
IC50 (curve of first compound, second compound 10 µM): < 31.6 nM
viability, T/C [5]: 30.4%
viability, T/C [6]: 24.9%
viability, T/C [7]: 26.7%
viability, T/C [8]: 32.1%
viability, T/C [9]: 30.8%
viability, T/C [10]: 1.2%
viability, T/C [11]: 27.2%
viability, T/C [12]: 24.7%
viability, T/C [13]: 32.2%
viability, T/C [14]: 39.8%
viability, T/C [15]: 28.7%
viability, T/C [16]: 1.28%
viability, T/C [17]: 25%
viability, T/C [18]: 27.7%
viability, T/C [19]: 26.9%
viability, T/C [20]: 25.9%
viability, T/C [21]: 32.7%
viability, T/C [22]: 1.02%
viability, T/C [23]: 26.6%
viability, T/C [24]: 26.6%
viability, T/C [25]: 31.8%
viability, T/C [26]: 33.4%
viability, T/C [27]: 30.6%
viability, T/C [28]: 1.41%
viability, T/C (second compound 3.16 µM, first compound 0.0316 µM): 29.6%
viability, T/C (second compound 3.16 µM, first compound 0.1 µM): 26.2%
viability, T/C (second compound 3.16 µM, first compound 0.316 µM): 28.6%
viability, T/C (second compound 3.16 µM, first compound 1 µM): 28.7%
viability, T/C (second compound 3.16 µM, first compound 3.16 µM): 29%
viability, T/C (second compound 3.16 µM, first compound 10 µM): 0.82%
viability, T/C (second compound 10 µM, first compound 0.0316 µM): 23.9%
viability, T/C (second compound 10 µM, first compound 0.1 µM): 28.4%
viability, T/C (second compound 10 µM, first compound 0.316 µM): 24.6%
viability, T/C (second compound 10 µM, first compound 1 µM): 21.3%
viability, T/C (second compound 10 µM, first compound 3.16 µM): 21.2%
viability, T/C (second compound 10 µM, first compound 10 µM): 0.69%
